Read-outs that look alike come from different tables or passages of the source.
What was measured:
[1] = tested on: Caov-3 cells; assay: Caov3 CTG proliferation assay; assay type: cell-based; conditions: Homo sapiens, Caov-3; treated for 120 hours, CellTiter-Glo luminescence; read-out: Caov3 cells IC50
Procedure: CTG Assay (Caov3 Cell Line)
Upon treatment, Coav-3 cells were incubated for 10 min at RT with the CellTiter-Glo reagent (G7571, Promega). Measurement of the luminescence signal was performed on a microplate reader (Ensight, PerkinElmer).
Caov3 CTG Assay—Proliferation Assay

[2] = tested on: KASUMI-1 cells; assay: Kasumi cell assay (CellTiter-Glo cell growth); assay type: cell-based; conditions: Homo sapiens, Kasumi 1; treated for 120 hours, CellTiter-Glo luminescence; read-out: KASUMI1 cells IC50
Procedure: Upon treatment, Kasumil cells were incubated for 10 min at RT with the CellTiter-Glo reagent (G7571, Promega). Measurement of the luminescence signal was performed on a microplate reader (Ensight, PerkinElmer).

[3] = biological target: T1, METTL3/14 (Homo sapiens (Human), UniProt Q86U44)
T1 sequence (Q86U44 whole entry): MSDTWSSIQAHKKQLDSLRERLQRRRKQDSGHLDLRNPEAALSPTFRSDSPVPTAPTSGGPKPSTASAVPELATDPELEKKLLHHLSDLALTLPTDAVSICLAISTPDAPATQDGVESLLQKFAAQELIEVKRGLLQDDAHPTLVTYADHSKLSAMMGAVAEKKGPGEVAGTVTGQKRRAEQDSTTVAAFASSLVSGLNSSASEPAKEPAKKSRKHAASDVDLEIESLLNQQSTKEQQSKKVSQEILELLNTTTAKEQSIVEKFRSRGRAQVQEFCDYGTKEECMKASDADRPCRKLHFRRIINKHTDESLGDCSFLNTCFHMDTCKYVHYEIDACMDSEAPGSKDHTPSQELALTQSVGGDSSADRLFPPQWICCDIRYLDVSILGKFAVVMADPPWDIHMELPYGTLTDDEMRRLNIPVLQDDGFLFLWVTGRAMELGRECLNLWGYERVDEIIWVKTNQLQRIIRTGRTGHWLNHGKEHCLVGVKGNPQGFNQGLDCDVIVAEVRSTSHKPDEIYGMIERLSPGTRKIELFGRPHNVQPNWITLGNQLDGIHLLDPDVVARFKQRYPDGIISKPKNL
T1 sequence (Q9HCE5 whole entry partner): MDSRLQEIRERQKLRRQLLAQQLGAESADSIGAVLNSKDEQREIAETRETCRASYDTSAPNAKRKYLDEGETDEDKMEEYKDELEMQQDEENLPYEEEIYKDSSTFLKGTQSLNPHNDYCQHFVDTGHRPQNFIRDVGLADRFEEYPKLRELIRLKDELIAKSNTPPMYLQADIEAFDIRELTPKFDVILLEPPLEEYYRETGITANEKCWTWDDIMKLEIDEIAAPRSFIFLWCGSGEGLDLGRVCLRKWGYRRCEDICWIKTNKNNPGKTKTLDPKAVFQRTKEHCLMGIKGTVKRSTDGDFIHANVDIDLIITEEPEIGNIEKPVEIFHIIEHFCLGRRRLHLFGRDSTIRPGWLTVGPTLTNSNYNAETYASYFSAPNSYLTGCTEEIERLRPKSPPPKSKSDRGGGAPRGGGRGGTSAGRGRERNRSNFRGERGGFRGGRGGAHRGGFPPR

[4] = biological target: T1, METTL3/14; assay: biochemical

| IC50 [4] [nM] | SMILES | IC50 [1] [nM] | IC50 [2] [nM] | IC50 [3] [nM] |
| --- | --- | --- | --- | --- |
| – | c1cc(-c2cn(Cc3ccc4cc(CN5CC6(CCC6)C5)[nH]c4c3)nn2)c2cn[nH]c2c1 [Compound 122, 4-(1-{[2-({2-azaspiro[3.3]heptanean-2-yl}methyl)-1H-indol-6-yl]methyl}-1H-1,2,3-triazol-4-yl)-1H-indazole] | 525 | 1100 | 6.1 |
| – | CC12CC(CNCc3cc4cnc(CNC(=O)c5cc(=O)n6ccccc6n5)cc4[nH]3)(C1)C2 [Compound 129, N-[(2-{[({3-methylbicyclo[1.1.1]pentan-1-yl}methyl)amino]methyl}-1H-pyrrolo[3,2-c]pyridin-6-yl)methyl]-4-oxo-4H-pyrido[1,2-a]pyrimidine-2-carboxamide] | 699 | 2900 | 6.1 |
| – | O=C(NCc1cc2[nH]c(CNCC3CCC3)cc2cn1)c1cc(=O)n2ccccc2n1 [Compound 130, N-[(2-{[(cyclobutylmethyl)amino]methyl}-1H-pyrrolo[3,2-c]pyridin-6-yl)methyl]-4-oxo-4H-pyrido[1,2-a]pyrimidine-2-carboxamide] | 457 | 3160 | 6.1 |
| – | O=C(NCc1cc2[nH]c(CNCC34CC(C3)C4)cc2cn1)c1cc(=O)n2ccccc2n1 [Compound 131, N-[(2-{[({bicyclo[1.1.1]pentan-1-yl}methyl)amino]methyl}-1H-pyrrolo[3,2-c]pyridin-6-yl)methyl]-4-oxo-4H-pyrido[1,2-a]pyrimidine-2-carboxamide] | 237 | 1140 | 6.1 |
| – | O=C(NCc1cc2[nH]c(CNCC34CC(F)(C3)C4)cc2cn1)c1cc(=O)n2ccccc2n1 [Compound 132, N-[(2-{[({3-fluorobicyclo[1.1.1]pentan-1-yl}methyl)amino]methyl}-1H-pyrrolo[3,2-c]pyridin-6-yl)methyl]-4-oxo-4H-pyrido[1,2-a]pyrimidine-2-carboxamide] | 268 | 785 | 6.1 |
| – | O=C(NCc1cc2[nH]c(CN3CCC4(CCC4)C3)cc2cn1)c1cc(=O)n2ccccc2n1 [Compound 145, N-((2-((6-azaspiro[3.4]octan-6-yl)methyl)-1H-pyrrolo[3,2-c]pyridin-6-yl)methyl)-4-oxo-4H-pyrido[1,2-a]pyrimidine-2-carboxamide] | 201 | 717 | < 6.1 |
| – | O=C(NCc1ccc2cc(CNCC3CCC3)[nH]c2c1)c1cc(=O)n2ccccc2n1 [Example 2, N-[(2-{[(cyclobutylmethyl)amino]methyl}-1H-indol-6-yl)methyl]-4-oxo-4H-pyrido[1,2-a]pyrimidine-2-carboxamide] | 237 | 587 | 6.1 |
| – | O=C(NCc1ccc2c(F)c(CNCC3CCC3)[nH]c2c1)c1cc(=O)n2ccccc2n1 [Example 45, N-[(2-{[(cyclobutylmethyl)amino]methyl}-3-fluoro-1H-indol-6-yl)methyl]-4-oxo-4H-pyrido[1,2-a]pyrimidine-2-carboxamide] | 574 | 764 | 6.1 |
| – | [2H]C([2H])(NCC1CCC1)c1cc2ccc(CNC(=O)c3cc(=O)n4ccccc4n3)cc2[nH]1 [Example 47, N-[[2-[(Cyclobutylmethylamino)-dideuterio-methyl]-1H-indol-6-yl]methyl]-4-oxo-pyrido[1,2-a]pyrimidine-2-carboxamide] | 186 | 344 | 6.1 |
| – | c1cc(-c2cn(Cc3cc4[nH]c(CNCC5CCC5)cc4cn3)nn2)c2cn[nH]c2c1 [Example 60, N-(cyclobutylmethyl)-1-[6-[[4-(1H-indazol-4-yl)triazol-1-yl]methyl]-1H-pyrrolo[3,2-c]pyridin-2-yl]methanamine] | 423 | 2180 | 6.1 |
| – | CC1(NCc2cc3ccc(CNC(=O)c4cc(=O)n5ccccc5n4)cc3[nH]2)CCCC1 [Example 114, N-[(2-{[(1-methylcyclopentyl)amino]methyl}-1H-indol-6-yl)methyl]-4-oxo-4H-pyrido[1,2-a]pyrimidine-2-carboxamide] | 679 | 1460 | 6.1 |
| – | FC12CC(CNCc3cc4ccc(Cn5cc(-c6cccn7cncc67)nn5)cc4[nH]3)(C1)C2 [Example 124, ({3-fluorobicyclo[1.1.1]pentan-1-yl}methyl)({6-[(4-{imidazo[1,5-a]pyridin-8-yl}-1H-1,2,3-triazol-1-yl)methyl]-1H-indol-2-yl}methyl)amine] | 266 | 662 | 6.1 |
| – | O=C(NCc1ccc2cc(CNCC34CC(F)(C3)C4)[nH]c2c1)c1cc(=O)n2ccsc2n1 [Example 125, N-[(2-{[({3-fluorobicyclo[1.1.1]pentan-1-yl}methyl)amino]methyl}-1H-indol-6-yl)methyl]-5-oxo-5H-[1,3]thiazolo[3,2-a]pyrimidine-7-carboxamide] | 212 | 504 | 6.1 |
| – | O=C(NCc1cnc2cc(CNCC34CC(C3)C4)[nH]c2c1)c1cc(=O)n2ccccc2n1 [Example 126, N-[(2-{[({bicyclo[1.1.1]pentan-1-yl}methyl)amino]methyl}-1H-pyrrolo[3,2-b]pyridin-6-yl)methyl]-4-oxo-4H-pyrido[1,2-a]pyrimidine-2-carboxamide] | 523 | 3070 | 6.1 |
| 19.3 | c1cc(-n2cc(Cc3ccc4cc(CNCC5CCC5)[nH]c4c3)nn2)c2cncn2c1 [Example 144, (cyclobutyl-methyl)({6-[(1-{imidazo[1,5-a]pyridin-8-yl}-1H-1,2,3-triazol-4-yl)methyl]-1H-indol-2-yl}methyl) amine] | – | – | – |
| – | c1cc(-c2cn(Cc3cc4[nH]c(CN5CCC6(CCC6)C5)cc4cn3)nn2)c2cncn2c1 [Example 155, 2-((6-azaspiro[3.4]octan-6-yl)methyl)-6-((4-(imidazo[1,5-a]pyridin-8-yl)-1H-1,2,3-triazol-1-yl)methyl)-1H-pyrrolo[3,2-c]pyridine] | 473 | 547 | < 6.1 |

— patent US11725010B2, “Polyheterocyclic compounds as METTL3 inhibitors” (Storm Therapeutics Limited, priority 2019, dated 2023)
